One test addresses T1, HDAC1 (Homo sapiens, UniProt Q13547).
T1 construct: Recombinant, full-length HDAC protein (BPS Biosciences) was incubated with fluorophore conjugated substrate; purchased BPS Biosciences
The experiment in a line: In vitro HDAC enzyme inhibition assay, HDAC1. To be noted: for HDAC1/HDAC6 in vitro selectivity: ratio of IC50 for HDAC1 relative to that of HDAC6; for pIC50: recombinant full-length HDAC1, substrate MAZ1600 21 μM. It is filed as biochemical. Here is the method:
(§1) In vitro Histone Deacetylase enzyme assays were performed using Class I (isoforms: HDAC1, HDAC2, HDAC3 and HDAC8), class IIa (isoforms: HDAC4, HDAC5, HDAC7 and HDAC9) and class IIb (isoform HDAC6).
(§2) HDAC activities were determined in vitro with an optimized homogenous assay performed in a 384-well plate. Recombinant, full-length HDAC protein (BPS Biosciences) was incubated with fluorophore conjugated substrate, MAZ1600 and MAZ1675, at Km=[S]. […] Reactions were performed in assay buffer (50 mM HEPES, 100 mM KCl, 0.001% Tween-20, 0.05% BSA, 200 μM tris(2-carboxyethyl)phosphine (TCEP), pH 7.4) and followed for fluorogenic release of 7-amino-4-methylcoumarin from substrate upon deacetylase and trypsin enzymatic activity. Fluorescence measurements were obtained every five minutes using a multilabel plate reader and plate-stacker (Envision; Perkin-Elmer). Each plate was analyzed by plate repeat, and the first derivative within the linear range was imported into analytical software (Spotfire DecisionSite and GraphPad Prism). Replicate experimental data from incubations with inhibitor were normalized to controls.

The target of another test is T2, HDAC4 (Homo sapiens, UniProt P56524).
T2 construct: Recombinant, full-length HDAC protein (BPS Biosciences) was incubated with fluorophore conjugated substrate; purchased BPS Biosciences
T2 sequence (P56524 whole entry): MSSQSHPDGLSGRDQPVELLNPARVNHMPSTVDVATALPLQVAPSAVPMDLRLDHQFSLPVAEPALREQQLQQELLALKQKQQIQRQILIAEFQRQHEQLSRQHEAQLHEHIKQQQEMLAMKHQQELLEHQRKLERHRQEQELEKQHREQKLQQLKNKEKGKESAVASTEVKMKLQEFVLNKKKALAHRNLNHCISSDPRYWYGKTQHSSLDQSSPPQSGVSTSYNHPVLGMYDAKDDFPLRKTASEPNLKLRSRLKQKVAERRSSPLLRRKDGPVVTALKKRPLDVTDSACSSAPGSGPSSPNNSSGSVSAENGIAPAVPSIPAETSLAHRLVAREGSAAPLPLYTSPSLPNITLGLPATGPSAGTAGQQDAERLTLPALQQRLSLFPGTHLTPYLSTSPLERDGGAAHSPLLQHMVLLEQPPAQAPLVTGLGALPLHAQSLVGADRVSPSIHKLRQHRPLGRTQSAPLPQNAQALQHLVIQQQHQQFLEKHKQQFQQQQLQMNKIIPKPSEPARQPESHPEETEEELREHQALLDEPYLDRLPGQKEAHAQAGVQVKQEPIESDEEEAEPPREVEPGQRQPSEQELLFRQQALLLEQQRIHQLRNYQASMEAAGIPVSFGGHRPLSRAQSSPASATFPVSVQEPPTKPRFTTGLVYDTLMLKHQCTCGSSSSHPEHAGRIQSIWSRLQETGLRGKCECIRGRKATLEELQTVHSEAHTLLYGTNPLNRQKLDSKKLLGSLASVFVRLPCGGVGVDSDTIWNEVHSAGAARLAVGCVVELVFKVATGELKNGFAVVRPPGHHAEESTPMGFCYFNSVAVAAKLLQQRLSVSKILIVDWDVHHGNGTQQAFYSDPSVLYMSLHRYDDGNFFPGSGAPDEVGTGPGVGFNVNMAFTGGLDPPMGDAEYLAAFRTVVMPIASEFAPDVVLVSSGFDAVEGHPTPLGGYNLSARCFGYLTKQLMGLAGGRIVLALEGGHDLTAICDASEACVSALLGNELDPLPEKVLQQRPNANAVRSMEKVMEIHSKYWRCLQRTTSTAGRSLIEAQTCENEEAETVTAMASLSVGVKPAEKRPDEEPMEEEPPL
The experiment in a line: In vitro HDAC enzyme inhibition assay, HDAC4. The conditions noted are these: for HDAC4/HDAC6 in vitro selectivity: ratio of IC50 for HDAC4 relative to that of HDAC6; for pIC50: recombinant full-length HDAC4, substrate MAZ1675 10 μM; for selectivity toward HDAC6 compared to HDAC4 (in words): tested in vitro. In kind it is biochemical. The method, then:
as §1, §2

The next test concerns the target T3, HDAC6 (Homo sapiens, UniProt Q9UBN7).
T3 construct: Recombinant, full-length HDAC protein (BPS Biosciences) was incubated with fluorophore conjugated substrate; purchased BPS Biosciences
T3 sequence (Q9UBN7 1-1215): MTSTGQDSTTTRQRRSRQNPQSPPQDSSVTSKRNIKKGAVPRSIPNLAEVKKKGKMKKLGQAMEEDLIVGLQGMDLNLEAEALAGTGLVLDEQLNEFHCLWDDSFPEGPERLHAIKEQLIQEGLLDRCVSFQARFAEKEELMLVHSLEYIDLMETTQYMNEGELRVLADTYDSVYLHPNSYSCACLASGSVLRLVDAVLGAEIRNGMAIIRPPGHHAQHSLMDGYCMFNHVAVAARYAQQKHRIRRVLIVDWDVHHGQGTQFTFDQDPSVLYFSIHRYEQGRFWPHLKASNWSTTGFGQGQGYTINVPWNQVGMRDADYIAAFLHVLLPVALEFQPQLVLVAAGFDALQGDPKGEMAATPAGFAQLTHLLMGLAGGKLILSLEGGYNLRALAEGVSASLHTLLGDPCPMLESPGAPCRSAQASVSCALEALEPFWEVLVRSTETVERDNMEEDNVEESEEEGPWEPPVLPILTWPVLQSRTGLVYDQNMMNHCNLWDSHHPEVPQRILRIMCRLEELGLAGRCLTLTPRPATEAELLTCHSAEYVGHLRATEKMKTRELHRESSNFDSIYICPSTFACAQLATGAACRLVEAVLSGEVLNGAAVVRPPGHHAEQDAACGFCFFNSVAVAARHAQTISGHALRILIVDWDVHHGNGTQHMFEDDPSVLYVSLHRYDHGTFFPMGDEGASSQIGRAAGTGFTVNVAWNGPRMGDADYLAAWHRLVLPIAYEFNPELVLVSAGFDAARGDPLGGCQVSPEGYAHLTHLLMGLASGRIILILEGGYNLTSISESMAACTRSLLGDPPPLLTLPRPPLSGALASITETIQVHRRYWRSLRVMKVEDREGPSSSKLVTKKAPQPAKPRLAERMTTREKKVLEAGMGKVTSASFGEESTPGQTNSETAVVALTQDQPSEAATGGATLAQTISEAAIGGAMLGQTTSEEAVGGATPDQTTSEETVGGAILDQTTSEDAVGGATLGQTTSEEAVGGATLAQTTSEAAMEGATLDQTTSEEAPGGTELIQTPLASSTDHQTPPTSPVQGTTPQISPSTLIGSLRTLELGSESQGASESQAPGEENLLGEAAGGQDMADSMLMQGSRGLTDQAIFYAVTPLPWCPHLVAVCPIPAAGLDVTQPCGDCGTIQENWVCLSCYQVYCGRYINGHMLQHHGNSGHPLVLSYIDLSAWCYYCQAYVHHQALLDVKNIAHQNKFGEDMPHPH
Nature of the test: In vitro HDAC enzyme inhibition assay, HDAC6. In kind it is biochemical. To be noted: recombinant full-length HDAC6, substrate MAZ1600 9 μM. Here is the method: as §1, §2

Another test has as its system acetylated histones. The experiment in a line: High-content image analysis of induction of acetylated histones in A549 cells. The conditions noted are these: for levels of acetylated histone, dose response (in words): A549 cells, FIG. 11; for pEC50: Homo sapiens, A549, 8 h, read-out: EC50 for half-maximal induction of acetylated histones (AcHistone).

Molecules are shown by their SMILES. pEC50, pIC50: −log10 of the molar value.

The values below come from patent US20150197497A1, “SELECTIVE INHIBITORS OF HISTONE DEACETYLASE ISOFORM 6 AND METHODS THEREOF” (DANA-FARBER CANCER INSTITUTE, INC., priority 2011, published 2015).

Broadly, the pIC50 is the negative decadic logarithm of the IC50, by convention in mol/L. In general, pEC50 refers to the EC50 on a negative log10 scale, so that one unit is a factor of ten.

T1 sequence (Q13547 whole entry): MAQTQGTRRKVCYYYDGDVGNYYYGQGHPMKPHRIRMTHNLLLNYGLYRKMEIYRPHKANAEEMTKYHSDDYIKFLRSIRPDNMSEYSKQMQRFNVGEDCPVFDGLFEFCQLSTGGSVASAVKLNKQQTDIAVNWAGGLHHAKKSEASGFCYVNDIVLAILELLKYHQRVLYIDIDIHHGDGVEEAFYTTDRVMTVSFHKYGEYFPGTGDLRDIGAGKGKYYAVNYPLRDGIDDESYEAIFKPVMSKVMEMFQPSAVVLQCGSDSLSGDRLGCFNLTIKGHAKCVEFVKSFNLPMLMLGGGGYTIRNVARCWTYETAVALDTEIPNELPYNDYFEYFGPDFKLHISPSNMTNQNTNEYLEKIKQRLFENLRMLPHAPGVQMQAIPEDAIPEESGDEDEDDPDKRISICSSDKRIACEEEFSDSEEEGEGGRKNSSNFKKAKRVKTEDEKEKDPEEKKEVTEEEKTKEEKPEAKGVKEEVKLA
Experimental for acetylated histones: Cells were treated with each test HDACi compound with an automated pin transfer instrument (Janus, Perkin Elmer) and incubated for 8 hours. […] Fixation solution was aspirated and 90 μL of washing solution (0.1% Triton X-100 in PBS) was added prior to 10 minute incubation at 4° C. Washing solution was aspirated and cells were incubated at 4° C. for about 1 hour in blocking solution (0.1% Triton X-100+2% BSA in PBS). Washing solution was aspirated, and cells were incubated for about 1 hour at 4° C. in primary antibody for acetylated-tubulin (Sigma T7451) and acetylated-histone (Cell Signaling #9441L) at a 1:1000 dilution in blocking solution. Primary antibody solution was aspirated, and cells were washed three times in 90 μL of washing solution. […] Secondary antibody and nuclear staining solution was aspirated and cells were washed three times in 90 μL of washing solution. After the third wash, 50 μL of PBS was added to each well. Image acquisition was done on a high content imaging microscope (ImageXpress Micro, Molecular Devices), and image analysis (MetaXpress, Molecular Devices) was performed to obtain average acetylated-tubulin and acetylated-histone signal per cell based on treatment. Replicate experimental data from incubations with inhibitor were normalized to DMSO controls.

As to `O=C(NO)c1ccc(Cn2c(C(F)(F)F)nc3ccccc32)cc1` [A1, N-hydroxy-4-((2-(trifluoromethyl)-1H-benzo[d]imidazol-1-yl)methyl)benzamide], at HDAC1, the “HDAC1/HDAC6 in vitro selectivity” value is listed as 1444 and the pIC50 is 6.17. At HDAC4, the “HDAC4/HDAC6 in vitro selectivity” value was 2948 and the negative logarithm of the IC50 (pIC50) is 5.86. The pIC50 at HDAC6 was 9.33. Also, in the test on acetylated histones, the “levels of acetylated histone, dose response (in words)” value is given as “absence of the dose-dependent response” and the negative-log EC50 (pEC50) is 5.20.

`Cc1ccc2c(c1)nc(C(F)(F)F)n2Cc1ccc(C(=O)NO)cc1` [A2, N-hydroxy-4-((5-methyl-2-(trifluoromethyl)-1H-benzo[d]imidazol-1-yl)methyl)benzamide]: on HDAC1, the “HDAC1/HDAC6 in vitro selectivity” value amounted to 808 and the negative-log IC50 (pIC50) is 6.61. On HDAC4, the “HDAC4/HDAC6 in vitro selectivity” value stood at 2775 and the pIC50 was 6.07. Also, at HDAC6, the pIC50 is 9.51. In addition, in the test on acetylated histones, the negative-log EC50 (pEC50) is 6.62.

For `O=C(NO)c1ccc(Cn2c(C(F)(F)F)nc3cc(F)ccc32)cc1` [A3, 4-((5-fluoro-2-(trifluoromethyl)-1H-benzo[d]imidazol-1-yl)methyl)-N-hydroxybenzamide], on HDAC1, the “HDAC1/HDAC6 in vitro selectivity” value is listed as 812 and the negative logarithm of the IC50 (pIC50) is 6.33. Besides, at HDAC4, the “HDAC4/HDAC6 in vitro selectivity” value turned out to be 1901 and the negative-log IC50 (pIC50) was 5.96. The negative-log IC50 (pIC50) on HDAC6 was 9.24. The pEC50 in the test on acetylated histones was 6.23.

Consider `O=C(NO)c1ccc(Cn2c(C(F)(F)F)nc3cc(Cl)ccc32)cc1` [A4, 4-((5-chloro-2-(trifluoromethyl)-1H-benzo[d]imidazol-1-yl)methyl)-N-hydroxybenzamide], for which, on HDAC1, the “HDAC1/HDAC6 in vitro selectivity” value turned out to be 343 and the negative logarithm of the IC50 (pIC50) is 6.40. Also, at HDAC4, the “HDAC4/HDAC6 in vitro selectivity” value was found to be 1188 and the pIC50 was 5.86. Also, at HDAC6, the pIC50 was 8.94. In the test on acetylated histones, the “levels of acetylated histone, dose response (in words)” value is listed as “absence of the dose-dependent response” and the negative logarithm of the EC50 (pEC50) is 4.83.

With `O=C(NO)c1ccc(Cn2c(C(F)(F)F)nc3cc(Br)ccc32)cc1` [A5, 4-((5-bromo-2-(trifluoromethyl)-1H-benzo[d]imidazol-l-yl)methyl)-N-hydroxybenzamide], at HDAC1, the “HDAC1/HDAC6 in vitro selectivity” value is 541 and the pIC50 is 6.78. On HDAC4, the “HDAC4/HDAC6 in vitro selectivity” value worked out at 2783 and the pIC50 was 6.06. The pIC50 on HDAC6 is 9.51. In the test on acetylated histones, the pEC50 is 5.71.

As to `COc1ccc2c(c1)nc(C(F)(F)F)n2Cc1ccc(C(=O)NO)cc1` [A6, N-hydroxy-4-((5-methoxy-2-(trifluoromethyl)-1H-benzo[d]imidazol-1-yl)methyl)benzamide], at HDAC1, the “HDAC1/HDAC6 in vitro selectivity” value came out at 629 and the negative-log IC50 (pIC50) was 6.61. Moreover, at HDAC4, the “HDAC4/HDAC6 in vitro selectivity” value is recorded as 2414 and the negative-log IC50 (pIC50) was 6.02. Further, the pIC50 on HDAC6 was 9.41. Moreover, the pEC50 with acetylated histones was 5.59.

Regarding `O=C(NO)c1ccc(Cn2cnc3ccccc32)cc1` [A7], on HDAC1, the “HDAC1/HDAC6 in vitro selectivity” value was 2695 and the pIC50 is 6.58. For the same molecule, at HDAC4, the “HDAC4/HDAC6 in vitro selectivity” value is given as 17962 and the pIC50 is 5.76. The pIC50 at HDAC6 was 10.01. Also, in the test on acetylated histones, the negative-log EC50 (pEC50) is 6.64.

With `Cc1ccc2c(c1)ncn2Cc1ccc(C(=O)NO)cc1` [A8, N-hydroxy-4-((5-methyl-1H-benzo[d]imidazol-1-yl)methyl)benzamide], on HDAC1, the “HDAC1/HDAC6 in vitro selectivity” value stood at 688 and the pIC50 is 6.58. On HDAC4, the “HDAC4/HDAC6 in vitro selectivity” value is recorded as 7247 and the negative logarithm of the IC50 (pIC50) was 5.56. Moreover, the pIC50 on HDAC6 is 9.42. In addition, the pEC50 in the test with acetylated histones was 7.10.

Consider `O=C(NO)c1ccc(Cn2cnc3cc(F)ccc32)cc1` [A9, 4-((5-fluoro-1H-benzo[d]imidazol-1-yl)methyl)-N-hydroxybenzamide], for which, at HDAC1, the “HDAC1/HDAC6 in vitro selectivity” value stood at 2812 and the pIC50 was 6.73. Also, at HDAC4, the “HDAC4/HDAC6 in vitro selectivity” value turned out to be 28751 and the negative-log IC50 (pIC50) is 5.72. Also, the negative-log IC50 (pIC50) on HDAC6 is 10.18. The pEC50 in the test with acetylated histones was 7.20.

`O=C(NO)c1ccc(Cn2cnc3cc(Cl)ccc32)cc1` [A10, 4-((5-chloro-1H-benzo[d]imidazol-1-yl)methyl)-N-hydroxybenzamide]: the “HDAC1/HDAC6 in vitro selectivity” value at HDAC1 is reported as 1399. Further, the pIC50 at HDAC1 is 7.02; at HDAC4, 5.83; on HDAC6 it was 10.16. For the same molecule, the “HDAC4/HDAC6 in vitro selectivity” value at HDAC4 is on record as 21516. In addition, the pEC50 in the test on acetylated histones is 6.05.

For `O=C(NO)c1ccc(Cn2cnc3cc(Br)ccc32)cc1` [A11, 4-((5-bromo-1H-benzo[d]imidazol-1-yl)methyl)-N-hydroxybenzamide], at HDAC1, the “HDAC1/HDAC6 in vitro selectivity” value is reported as 1725 and the pIC50 is 7.54. Besides, on HDAC4, the “HDAC4/HDAC6 in vitro selectivity” value came to 93190, the pIC50 is 5.81 and the “selectivity toward HDAC6 compared to HDAC4 (in words)” value (shortened to “selectivity toward HDAC6”) is recorded as “exceptionally high selectivity (Inhibitors with in vitro selectivity values for HDAC6 of at least 30,000 are considered to have exceptionally high selectivity toward HDAC6)”. Moreover, the pIC50 on HDAC6 was 10.78. Moreover, the pEC50 with acetylated histones was 5.71.

On to `COc1ccc2c(c1)ncn2Cc1ccc(C(=O)NO)cc1` [A12, N-hydroxy-4-((5-methoxy-1H-benzo[d]imidazol-1-yl)methyl)benzamide], for which, on HDAC1, the “HDAC1/HDAC6 in vitro selectivity” value stood at 1378 and the negative logarithm of the IC50 (pIC50) is 6.52. In addition, on HDAC4, the “HDAC4/HDAC6 in vitro selectivity” value is 12423 and the negative-log IC50 (pIC50) was 5.57. In addition, the negative logarithm of the IC50 (pIC50) on HDAC6 was 9.66. Further, the pEC50 in the test on acetylated histones is 6.98.

In the case of `O=C(NO)c1ccc(Cn2c(=O)[nH]c3ccccc32)cc1` [B1, N-hydroxy-4-((2-oxo-2,3-dihydro-1H-benzo[d]imidazol-1-yl)methyl)benzamide], at HDAC1, the “HDAC1/HDAC6 in vitro selectivity” value turned out to be 9665 and the pIC50 is 6.85. On HDAC4, the “HDAC4/HDAC6 in vitro selectivity” value was found to be 153386, the pIC50 is 5.65 and the “selectivity toward HDAC6” value is “exceptionally high selectivity (Inhibitors with in vitro selectivity values for HDAC6 of at least 30,000 are considered to have exceptionally high selectivity toward HDAC6)”. In addition, the pIC50 on HDAC6 is 10.84. Moreover, in the test with acetylated histones, the negative logarithm of the EC50 (pEC50) is 6.58.

For the molecule `Cc1ccc2c(c1)[nH]c(=O)n2Cc1ccc(C(=O)NO)cc1` [B2, N-hydroxy-4-((5-methyl-2-oxo-2,3-dihydro-1H-benzo[d]imidazol-1-yl)methyl)benzamide], at HDAC1, the “HDAC1/HDAC6 in vitro selectivity” value was found to be 4622 and the negative-log IC50 (pIC50) was 7.88. Moreover, at HDAC4, the “HDAC4/HDAC6 in vitro selectivity” value is given as 412836, the pIC50 is 5.93 and the “selectivity toward HDAC6” value was “exceptionally high selectivity (Inhibitors with in vitro selectivity values for HDAC6 of at least 30,000 are considered to have exceptionally high selectivity toward HDAC6)”. In addition, the pIC50 on HDAC6 was 11.54. Besides, the pEC50 with acetylated histones was 6.64.
